# Test results taken from patent publication US20260345802A1, “ANTIBODY-DRUG CONJUGATES AND LINKERS AND METHODS OF USE THEREOF” (priority 2023, published 2026).
# Where a SMILES comes first, the peptide text is derived from it. [ ]: non-standard residue; d: D form. Dolaproine = CO[C@@H]([C@@H]1CCCN1)[C@@H](C)C(=O)O; Dil = CC[C@H](C)[C@H](NC)[C@@H](CC(=O)O)OC; NMeV = CN[C@H](C(=O)O)C(C)C
# Test system: TNBC tumor tissue
# Assay: Single-cell RNA sequencing of tumors
# Format: in vivo, mouse
# Settings: scRNA-Seq, payload effect
# Method: The flash-frozen tissue samples (25 mg) were collected and stored at −80° C. until processing. Chromium Next GEM RNA Profiling Sample Fixation Kit (PN-1000414, 10× Genomics, Pleasanton, CA, USA) was used to fix tissue by mixing 1 mL of fixation buffer with 25 mg of tissue, followed by fine mince and incubation at 4° C. for 16-24 hours without agitation. After fixation, tissue samples were centrifuged, washed with chilled PBS, and resuspended in 1 mL of tissue resuspension buffer. The fixed tissues supplemented with pre-warmed dissociation buffer were dissociated using an Octo Dissociator according to the manufacturer's instructions. […] Cell concentration was determined using an automated cell counter with fluorescent nucleic acid staining. […]
# A 10× single-cell library was prepared using the Chromium Fixed RNA Kit (Cat #1000497, 10× Genomics). […] The quality control of cDNA was evaluated using an Agilent Bioanalyzer aiming for the final library molecules with P5 and P7 priming sites used in Illumina sequencers. For each cDNA sample, single-cell library construction was started using the 10× barcoded ligated probe products, and sequenced using the NovaSeq 6000 flow cell 100-cycle kit (Illumina, San Diego, CA, USA) in a Read1:i7:i5:Read2 format of 28:10:10:90 bp at 10× Genomics. […]
structure (smiles),measurement,value
"CC[C@H](C)[C@@H]([C@@H](CC(=O)N1CCC[C@H]1[C@H](OC)[C@@H](C)C(=O)N[C@@H](Cc1ccccc1)C(=O)O)OC)N(C)C(=O)[C@@H](NC(=O)[C@@H](NC)C(C)C)C(C)C [MMAF, Monomethylauristatin F] (H-[NMeV]V[Dil][Dolaproine]F-OH)",tumor cell distribution in mitotic stages,inhibition of cell proliferation
